US9492471B2, “Methods of treating a disease or disorder associated with Bruton'S Tyrosine Kinase” (Celgene Avilomics Research, Inc., priority 2013, dated 2016)
Read-outs that look alike come from different tables or passages of the source.

Experiments:
Assay in all cases: HotSpot kinase profiling
Format in all cases: biochemical
ALK5/TGFBR1 = biological target: T1, ALK5/TGFBR1 (Homo sapiens, UniProt P36897)
T1 construct: purchased Reaction Biology Corp
T1 sequence (P36897 34-503): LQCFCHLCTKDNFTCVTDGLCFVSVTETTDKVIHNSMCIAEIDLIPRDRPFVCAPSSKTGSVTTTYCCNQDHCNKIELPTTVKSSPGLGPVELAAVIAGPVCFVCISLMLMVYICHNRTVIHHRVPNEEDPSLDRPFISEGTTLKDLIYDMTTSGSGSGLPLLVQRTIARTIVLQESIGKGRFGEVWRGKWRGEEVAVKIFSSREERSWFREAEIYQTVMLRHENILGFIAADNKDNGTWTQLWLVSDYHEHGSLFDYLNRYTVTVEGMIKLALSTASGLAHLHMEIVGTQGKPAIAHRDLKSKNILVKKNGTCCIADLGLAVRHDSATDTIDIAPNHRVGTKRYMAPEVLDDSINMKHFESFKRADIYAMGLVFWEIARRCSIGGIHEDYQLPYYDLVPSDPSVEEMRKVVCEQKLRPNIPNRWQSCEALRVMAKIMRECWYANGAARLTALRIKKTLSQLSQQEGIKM
How it was run: (§1)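 Activity is measured by radiolabel transfer captured on P81 filters after a 2 h room-temperature reaction of kinase, substrate and cofactors. Values are percent inhibition against DMSO.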

VRK1 = biological target: T2, VRK1 (Homo sapiens, UniProt Q99986)
T2 construct: purchased Reaction Biology Corp
T2 sequence (Q99986 1-396): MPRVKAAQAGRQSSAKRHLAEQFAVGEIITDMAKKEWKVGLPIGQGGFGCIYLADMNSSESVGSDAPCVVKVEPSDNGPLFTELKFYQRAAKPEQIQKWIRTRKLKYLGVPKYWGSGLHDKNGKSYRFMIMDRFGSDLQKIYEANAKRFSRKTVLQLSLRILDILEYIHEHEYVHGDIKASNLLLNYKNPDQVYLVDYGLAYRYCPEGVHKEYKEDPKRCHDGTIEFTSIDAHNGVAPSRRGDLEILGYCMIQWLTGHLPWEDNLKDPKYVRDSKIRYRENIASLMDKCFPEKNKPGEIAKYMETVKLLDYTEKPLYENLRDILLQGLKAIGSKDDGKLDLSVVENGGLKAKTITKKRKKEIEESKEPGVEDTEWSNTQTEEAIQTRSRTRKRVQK
How it was run: as §1

HIPK1 = biological target: T3, HIPK1 (Homo sapiens, UniProt Q86Z02)
T3 construct: purchased Reaction Biology Corp
T3 sequence (Q86Z02 whole entry): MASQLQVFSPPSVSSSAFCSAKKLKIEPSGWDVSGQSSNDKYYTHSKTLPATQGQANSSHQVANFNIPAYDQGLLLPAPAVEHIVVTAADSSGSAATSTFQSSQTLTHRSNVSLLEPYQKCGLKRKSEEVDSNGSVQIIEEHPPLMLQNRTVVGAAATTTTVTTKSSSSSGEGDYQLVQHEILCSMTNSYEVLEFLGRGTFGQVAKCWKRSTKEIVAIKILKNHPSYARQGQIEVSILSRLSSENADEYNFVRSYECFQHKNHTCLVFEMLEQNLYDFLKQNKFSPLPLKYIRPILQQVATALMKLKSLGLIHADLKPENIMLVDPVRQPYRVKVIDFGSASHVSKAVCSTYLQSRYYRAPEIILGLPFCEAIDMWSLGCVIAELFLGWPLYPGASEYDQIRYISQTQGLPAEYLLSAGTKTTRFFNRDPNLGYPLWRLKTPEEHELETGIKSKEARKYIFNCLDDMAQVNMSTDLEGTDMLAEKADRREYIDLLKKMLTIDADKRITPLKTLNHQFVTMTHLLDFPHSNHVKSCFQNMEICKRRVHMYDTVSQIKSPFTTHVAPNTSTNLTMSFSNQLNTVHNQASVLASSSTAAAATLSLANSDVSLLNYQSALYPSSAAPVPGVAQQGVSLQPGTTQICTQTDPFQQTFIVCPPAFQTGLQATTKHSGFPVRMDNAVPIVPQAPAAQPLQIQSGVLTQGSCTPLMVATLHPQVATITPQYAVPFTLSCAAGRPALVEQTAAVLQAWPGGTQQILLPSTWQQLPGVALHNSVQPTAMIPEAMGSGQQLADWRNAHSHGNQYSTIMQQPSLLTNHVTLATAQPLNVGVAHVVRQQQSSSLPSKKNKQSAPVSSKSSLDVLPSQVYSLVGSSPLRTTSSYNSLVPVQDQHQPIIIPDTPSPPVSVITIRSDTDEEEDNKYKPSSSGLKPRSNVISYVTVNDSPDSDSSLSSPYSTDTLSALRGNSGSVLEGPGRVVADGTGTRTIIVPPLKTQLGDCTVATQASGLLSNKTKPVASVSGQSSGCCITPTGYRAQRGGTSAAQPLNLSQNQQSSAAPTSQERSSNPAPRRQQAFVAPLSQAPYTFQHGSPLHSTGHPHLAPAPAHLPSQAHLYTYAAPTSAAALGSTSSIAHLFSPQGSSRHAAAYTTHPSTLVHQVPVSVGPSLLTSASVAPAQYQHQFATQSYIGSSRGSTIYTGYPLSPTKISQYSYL
How it was run: as §1

CDK4/cyclin D1 = biological target: T4, CDK4/cyclin D1 (Homo sapiens, UniProt P11802)
T4 construct: purchased Reaction Biology Corp
T4 sequence (P11802 whole entry): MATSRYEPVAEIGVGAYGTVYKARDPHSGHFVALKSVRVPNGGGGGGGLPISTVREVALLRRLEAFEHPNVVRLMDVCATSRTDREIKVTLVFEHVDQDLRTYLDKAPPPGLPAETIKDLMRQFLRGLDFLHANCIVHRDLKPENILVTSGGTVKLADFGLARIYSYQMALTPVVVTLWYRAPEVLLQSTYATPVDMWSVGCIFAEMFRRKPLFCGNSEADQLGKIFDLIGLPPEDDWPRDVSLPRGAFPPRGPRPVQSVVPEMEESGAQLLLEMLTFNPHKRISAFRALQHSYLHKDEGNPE
T4 sequence (P24385 whole entry partner): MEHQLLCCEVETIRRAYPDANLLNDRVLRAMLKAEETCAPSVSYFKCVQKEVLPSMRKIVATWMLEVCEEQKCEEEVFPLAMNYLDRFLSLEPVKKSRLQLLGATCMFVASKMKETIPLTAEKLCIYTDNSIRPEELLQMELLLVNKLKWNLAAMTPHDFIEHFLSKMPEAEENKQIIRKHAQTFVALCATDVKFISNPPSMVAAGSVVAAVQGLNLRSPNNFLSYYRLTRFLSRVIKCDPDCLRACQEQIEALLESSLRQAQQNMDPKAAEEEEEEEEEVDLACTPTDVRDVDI
How it was run: as §1

TGFBR2 = biological target: T5, TGFBR2 (Homo sapiens, UniProt P37173)
T5 construct: purchased Reaction Biology Corp
T5 sequence (P37173 23-567): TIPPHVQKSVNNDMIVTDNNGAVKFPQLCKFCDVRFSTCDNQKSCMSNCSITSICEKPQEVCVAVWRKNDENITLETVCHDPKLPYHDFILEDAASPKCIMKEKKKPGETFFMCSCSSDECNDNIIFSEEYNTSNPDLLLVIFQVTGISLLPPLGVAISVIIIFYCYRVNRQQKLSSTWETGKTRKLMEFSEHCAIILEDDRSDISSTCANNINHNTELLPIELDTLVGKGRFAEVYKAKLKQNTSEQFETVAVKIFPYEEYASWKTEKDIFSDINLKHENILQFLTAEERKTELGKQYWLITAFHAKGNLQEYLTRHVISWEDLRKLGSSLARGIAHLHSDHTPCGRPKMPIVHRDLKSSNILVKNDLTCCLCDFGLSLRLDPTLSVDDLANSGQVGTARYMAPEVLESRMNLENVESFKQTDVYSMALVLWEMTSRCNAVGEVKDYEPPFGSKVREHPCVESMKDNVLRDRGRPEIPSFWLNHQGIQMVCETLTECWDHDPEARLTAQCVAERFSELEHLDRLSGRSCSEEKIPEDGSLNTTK
How it was run: as §1

FAK/PTK2 = biological target: T6, FAK/PTK2 (Homo sapiens, UniProt Q05397)
T6 construct: purchased Reaction Biology Corp
T6 sequence (Q05397 whole entry): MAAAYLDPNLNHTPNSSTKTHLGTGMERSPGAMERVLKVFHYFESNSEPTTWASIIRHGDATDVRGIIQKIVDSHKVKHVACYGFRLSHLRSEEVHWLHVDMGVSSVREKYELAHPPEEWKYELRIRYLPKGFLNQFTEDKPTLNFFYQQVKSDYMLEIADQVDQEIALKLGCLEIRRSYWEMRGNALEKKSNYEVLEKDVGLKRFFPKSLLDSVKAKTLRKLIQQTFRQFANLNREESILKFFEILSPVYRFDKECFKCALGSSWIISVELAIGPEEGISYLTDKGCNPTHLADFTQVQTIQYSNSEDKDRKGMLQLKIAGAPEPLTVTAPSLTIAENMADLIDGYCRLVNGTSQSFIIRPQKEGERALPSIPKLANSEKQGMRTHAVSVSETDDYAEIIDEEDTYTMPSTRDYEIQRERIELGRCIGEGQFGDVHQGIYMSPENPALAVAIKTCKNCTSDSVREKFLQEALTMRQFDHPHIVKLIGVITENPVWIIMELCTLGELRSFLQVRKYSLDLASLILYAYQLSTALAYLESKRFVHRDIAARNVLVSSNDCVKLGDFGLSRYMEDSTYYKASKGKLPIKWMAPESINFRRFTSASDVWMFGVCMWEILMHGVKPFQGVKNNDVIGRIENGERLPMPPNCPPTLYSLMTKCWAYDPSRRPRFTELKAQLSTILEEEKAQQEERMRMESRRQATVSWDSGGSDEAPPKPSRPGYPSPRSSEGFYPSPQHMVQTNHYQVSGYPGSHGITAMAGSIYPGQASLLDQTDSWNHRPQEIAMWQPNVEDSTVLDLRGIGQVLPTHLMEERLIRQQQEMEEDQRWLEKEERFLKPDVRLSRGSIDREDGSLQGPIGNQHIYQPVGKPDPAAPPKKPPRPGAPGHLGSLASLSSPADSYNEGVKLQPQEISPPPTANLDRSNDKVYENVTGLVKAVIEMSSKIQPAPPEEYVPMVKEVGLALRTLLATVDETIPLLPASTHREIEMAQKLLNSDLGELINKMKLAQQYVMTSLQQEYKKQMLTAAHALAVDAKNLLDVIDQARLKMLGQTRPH
How it was run: as §1

MARK3 = biological target: T7, MARK3 (Homo sapiens, UniProt P27448)
T7 construct: purchased Reaction Biology Corp
T7 sequence (P27448 whole entry): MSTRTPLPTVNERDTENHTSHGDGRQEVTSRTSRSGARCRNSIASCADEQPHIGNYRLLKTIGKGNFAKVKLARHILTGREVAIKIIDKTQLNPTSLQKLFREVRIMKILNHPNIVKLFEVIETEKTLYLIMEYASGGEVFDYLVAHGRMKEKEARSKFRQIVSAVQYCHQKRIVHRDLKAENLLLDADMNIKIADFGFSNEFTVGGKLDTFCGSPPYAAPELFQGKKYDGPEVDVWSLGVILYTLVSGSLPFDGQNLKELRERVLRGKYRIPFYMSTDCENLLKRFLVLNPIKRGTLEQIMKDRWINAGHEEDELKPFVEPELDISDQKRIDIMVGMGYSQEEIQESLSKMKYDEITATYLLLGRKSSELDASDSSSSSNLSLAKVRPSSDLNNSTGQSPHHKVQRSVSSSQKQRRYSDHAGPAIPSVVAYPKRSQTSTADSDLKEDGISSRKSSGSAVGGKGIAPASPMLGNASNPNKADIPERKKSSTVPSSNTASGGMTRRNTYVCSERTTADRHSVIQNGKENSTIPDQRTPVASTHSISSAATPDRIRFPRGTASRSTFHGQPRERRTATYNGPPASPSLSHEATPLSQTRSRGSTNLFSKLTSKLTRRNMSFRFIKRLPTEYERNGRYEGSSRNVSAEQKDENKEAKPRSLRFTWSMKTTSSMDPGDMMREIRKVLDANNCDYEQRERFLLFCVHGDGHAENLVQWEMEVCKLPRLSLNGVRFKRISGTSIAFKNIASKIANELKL
How it was run: as §1

SRPK1 = biological target: T8, SRPK1 (Homo sapiens, UniProt Q96SB4)
T8 construct: purchased Reaction Biology Corp
How it was run: as §1

STK33 = biological target: T9, STK33 (Homo sapiens, UniProt Q9BYT3)
T9 construct: purchased Reaction Biology Corp
How it was run: as §1

DYRK1B = biological target: T10, DYRK1B (Homo sapiens, UniProt Q9Y463)
T10 construct: purchased Reaction Biology Corp
T10 sequence (Q9Y463 whole entry): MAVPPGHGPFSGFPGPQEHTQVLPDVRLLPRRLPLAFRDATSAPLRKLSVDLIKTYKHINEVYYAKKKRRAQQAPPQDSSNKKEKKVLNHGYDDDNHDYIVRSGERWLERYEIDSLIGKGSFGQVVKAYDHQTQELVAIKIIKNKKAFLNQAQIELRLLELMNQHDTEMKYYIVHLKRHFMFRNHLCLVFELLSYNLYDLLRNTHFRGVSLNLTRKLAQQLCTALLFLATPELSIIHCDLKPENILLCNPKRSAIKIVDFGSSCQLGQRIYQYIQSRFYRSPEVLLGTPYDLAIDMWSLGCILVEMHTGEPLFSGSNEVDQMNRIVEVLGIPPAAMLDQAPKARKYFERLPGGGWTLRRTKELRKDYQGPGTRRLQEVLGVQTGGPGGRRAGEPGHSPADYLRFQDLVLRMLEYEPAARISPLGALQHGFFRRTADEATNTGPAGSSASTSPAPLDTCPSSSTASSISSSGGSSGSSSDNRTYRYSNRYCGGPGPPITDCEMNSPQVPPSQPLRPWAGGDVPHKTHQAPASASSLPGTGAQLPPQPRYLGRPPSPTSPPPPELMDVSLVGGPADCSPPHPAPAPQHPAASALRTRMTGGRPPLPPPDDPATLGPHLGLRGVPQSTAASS
How it was run: as §1

[1] = read-out: % Enzyme Activity (relative to DMSO controls) Run 1
[2] = read-out: % Enzyme Activity (relative to DMSO controls) Run 2

`C=CC(=O)Nc1cccc(Nc2nc(Nc3ccc(OCCOC)c(F)c3)ncc2F)c1` [Compound 2] was tested, and the inhibition at 3 µM (ALK5/TGFBR1) was -8.03%, the remaining activity at 3 µM (ALK5/TGFBR1; [1]) was 106% and the remaining activity at 3 µM (ALK5/TGFBR1; [2]) was 110%. The inhibition at 3 µM (VRK1) was 12.9%, the remaining activity at 3 µM (VRK1; [1]) was 84.3% and the remaining activity at 3 µM (VRK1; [2]) was 89.9%. For the same compound, the inhibition at 3 µM (HIPK1) was 10.3%, the remaining activity at 3 µM (HIPK1; [1]) was 87.6% and the remaining activity at 3 µM (HIPK1; [2]) was 91.7%. For the same compound, the inhibition at 3 µM (CDK4/cyclin D1) was 4.07%, the remaining activity at 3 µM (CDK4/cyclin D1; [1]) was 95.6% and the remaining activity at 3 µM (CDK4/cyclin D1; [2]) was 96.3%. For the same compound, the inhibition at 3 µM (TGFBR2) was -0.19%, the remaining activity at 3 µM (TGFBR2; [1]) was 98.1% and the remaining activity at 3 µM (TGFBR2; [2]) was 102%. It also gave an inhibition at 3 µM (FAK/PTK2) of 37.1%, a remaining activity at 3 µM (FAK/PTK2; [1]) of 62.8% and a remaining activity at 3 µM (FAK/PTK2; [2]) of 62.9%. The inhibition at 3 µM (MARK3) was -0.92%, the remaining activity at 3 µM (MARK3; [1]) was 101% and the remaining activity at 3 µM (MARK3; [2]) was 100%. It also gave an inhibition at 3 µM (SRPK1) of 2.23%, a remaining activity at 3 µM (SRPK1; [1]) of 98.8% and a remaining activity at 3 µM (SRPK1; [2]) of 96.7%. It also gave an inhibition at 3 µM (STK33) of 48.1%, a remaining activity at 3 µM (STK33; [1]) of 51.2% and a remaining activity at 3 µM (STK33; [2]) of 52.5%. It also gave an inhibition at 3 µM (DYRK1B) of 20.2%, a remaining activity at 3 µM (DYRK1B; [1]) of 78.6% and a remaining activity at 3 µM (DYRK1B; [2]) of 80.9%.
